Laboratory results from patent US11013235B2 (priority 2015, dated 2021).
Like-named read-outs stand apart in the source and are kept apart here.

Key:
Assay type in all cases: in vivo
[1] = tested on: Candidatus 'Liberibacter asiaticus'; conditions: spraying every 15 days, 12 months after treatment, Citrus sinensis with HLB
[2] = tested on: Phytophthora parasitica; test: Control of Phytophthora parasitica disease in tobacco (Pp-Nt); conditions: 1 μM spraying every 24 hours for one week, water control 91
[3] = tested on: Rhizoctonia solani; test: Control of Rhizoctonia solani disease in tobacco (Rs-Nt); conditions: 1 μM spraying every 24 hours for one week, water control 87
[4] = tested on: Nocardia sp; test: Control of Nocardia sp disease in tobacco (N-Nt); conditions: 1 μM spraying every 24 hours for one week, water control 58
Procedure, shortened: (§1)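 Post-inoculation foliar spray, 1 μM, q24h × 1 wk; n = 50 plants/treatment; water control. Endpoints: mortality rate (Nocardia), % symptomatic leaves (Alternaria), lesion diameter (Botrytis).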

[5] = tested on: Rhizoctonia solani; test: Control of Rhizoctonia solani disease in tomato (Rs-SI); conditions: 1 μM spraying every 24 hours for one week, water control 96
[6] = tested on: Alternaria solani; test: Control of Alternaria solani disease in tomato (As-SI); conditions: 1 μM spraying every 24 hours for one week, water control 68
Procedure, shortened: as §1

[7] = tested on: Botrytis cinerea; test: Control of Botrytis cinerea disease in Arabidopsis (Bc-At); conditions: 1 μM spraying every 24 hours for one week, water control 8.7
Procedure, shortened: as §1

[8] = tested on: Botrytis cinerea; test: Control of Botrytis cinerea disease in tobacco (Bc-Nt); conditions: 1 μM spraying every 24 hours for one week, water control 6.7
Procedure, shortened: as §1

[9] = tested on: Botrytis cinerea; test: Control of Botrytis cinerea disease in tomato (Bc-SI); conditions: 1 μM spraying every 24 hours for one week, water control 7.4
Procedure, shortened: as §1

[10] = tested on: Radopholus similis; test: Nematode control, nodules per plant: Radopholus similis; conditions: 1 μM foliar application every 5 days, evaluation 35 days after, control 45
Procedure, shortened: (§2)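 Ten plants per group were treated by spraying leaves only, every 5 days, with compound at 1 μM in water diluted from ethanol, and final nodule counts per plant were taken after 35 days.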

[11] = tested on: Meloidogyne incognita; test: Nematode control, nodules per plant: Meloidogyne incognita; conditions: 1 μM foliar application every 5 days, evaluation 35 days after, control 34
Procedure, shortened: as §2

[12] = tested on: Pratylenchus coffeae; test: Nematode control, nodules per plant: Pratylenchus coffeae; conditions: 1 μM foliar application every 5 days, evaluation 35 days after, control 42
Procedure, shortened: as §2

SMILES	Titers of the bacterium ([1]; 0.001 μM) [copies per reaction]	Titers of the bacterium ([1]; 0.01 μM) [copies per reaction]	Titers of the bacterium ([1]; 1 μM) [copies per reaction]	Titers of the bacterium ([1]; 5 μM) [copies per reaction]	Titers of the bacterium ([1]; 10 μM) [copies per reaction]	Pp-Nt: percentage of mortality [2] [%]	Rs-Nt: percentage of mortality [3] [%]	N-Nt: percentage of mortality [4] [%]	Rs-SI: percentage of mortality [5] [%]	As-SI: percentage of leaves with the disease symptoms [6] [%]	Bc-At: mean of the diameter of the lesion [7] [mm]	Bc-Nt: mean of the diameter of the lesion [8] [mm]	Bc-SI: mean of the diameter of the lesion [9] [mm]	Rs: number of nodules per plant [10]	Mi: number of nodules per plant [11]	Pc: number of nodules per plant [12]
Cc1nc(N2CCN(c3ccccc3)CC2)ncc1C(=O)N1CC2CC(O)C(O)CC2C1 (stereo not drawn) [IIID, 2-{[4-methyl-2-(4-phenylpiperazin-1-yl)pyrimidin-5-yl]carbonyl}-octahydro-1H-isoindole-5,6-diol]	985	1	0	98	9653	0	0	1	2	8	1.1	2.0	1.6	0	0	18
O=C(c1cnc(N2CCN(C3CCCCC3)CC2)nc1)N1CC2CC(O)C(O)CC2C1 (stereo not drawn) [IIIE, 2-{[2-(4-cyclohexylpiperazin-1-yl)pyrimidin-5-yl]carbonyl}-octahydro-1H-isoindole-5,6-diol]	657	7	0	67	8653	0	0	0	0	7	0.5	0.9	0.8	0	0	0
Cc1nc(N2CCN(C3CCCCC3)CC2)ncc1C(=O)N1CC2CC(O)C(O)CC2C1 (stereo not drawn) [IIIF, 2-{[2-(4-cyclohexylpiperazin-1-yl)-4-methylpyrimidin-5-yl]carbonyl}-octahydro-1H-isoindole-5,6-diol]	658	5	4	68	3654	0	0	0	1	5	1.5	1.5	2.5	0	0	0
O=C(c1cnc(N2CCN(C3CCCC3)CC2)nc1)N1CC2CC(O)C(O)CC2C1 (stereo not drawn) [IIIG, 2-{[2-(4-cyclopentylpiperazin-1-yl)pyrimidin-5-yl]carbonyl}-octahydro-1H-isoindole-5,6-diol]	756	12	5	76	9654	3	0	0	1	7	2.4	1.5	0.8	3	0	0
Cc1nc(N2CCN(C3CCCC3)CC2)ncc1C(=O)N1CC2CC(O)C(O)CC2C1 (stereo not drawn) [IIIH, 2-{[2-(4-cyclopentylpiperazin-1-yl)-4-methylpyrimidin-5-yl]carbonyl)-octahydro-1H-isoindole-5,6-diol]	456	15	6	56	3657	1	2	1	3	1	0.7	0.9	1.2	14	2	16
O=C(c1cnc(N2CCNCC2)nc1)N1CC2CC(O)C(O)CC2C1 (stereo not drawn) [IIII, 2-{[2-(piperazin-1-yl)pyrimidin-5-yl]carbonyl}-octahydro-1H-isoindole-5,6-diol]	435	9	8	45	8654	2	3	1	2	2	1.2	0.3	0.8	2	3	12
Cc1nc(N2CCNCC2)ncc1C(=O)N1CC2CC(O)C(O)CC2C1 (stereo not drawn) [IIIJ, 2-{[4-methyl-2-(piperazin-1-yl)pyrimidin-5-yl]carbonyl}-octahydro-1H-isoindole-5,6-diol]	578	0	7	578	7546	1	4	2	2	3	1.1	2.0	1.6	12	4	2
O=C(c1cnc(N2CCN(n3cccc3)CC2)nc1)N1CC2CC(O)C(O)CC2C1 (stereo not drawn) [IIIK, 2-({2-[4-(1H-pyrrol-1-yl)piperazin-1-yl]pyrimidin-5-yl}carbonyl)-octahydro-1H-isoindole-5,6-diol]	635	0	3	65	8420	0	0	1	2	8	0.5	0.9	0.8	0	0	14
Cc1nc(N2CCN(n3cccc3)CC2)ncc1C(=O)N1CC2CC(O)C(O)CC2C1 (stereo not drawn) [IIIL, 2-({4-methyl-2-[4-(1H-pyrrol-1-yl)piperazin-1-yl]pyrimidin-5-yl}carbonyl)-octahydro-1H-isoindole-5,6-diol]	524	0	6	54	5840	0	0	0	0	7	1.5	1.5	2.5	0	0	0
